5 compounds from patent US20260327264A1, “PEPTIDE INHIBITORS OF INTERLEUKIN-23 RECEPTOR” (Zealand Pharma A/S, priority 2023, published 2026) can be followed below.

As a reminder, the IC50 is the concentration that inhibits the measured activity by half.

The target in one test is T1, human IL-23R (Homo sapiens, UniProt Q5VWK5).
T1 construct: Nanoluc luciferase (Nluc); secretion signal encoded by the plasmid (not specified); expressed in transfected cells; crude membranes used in the assay
T1 sequence (Q5VWK5 22-629): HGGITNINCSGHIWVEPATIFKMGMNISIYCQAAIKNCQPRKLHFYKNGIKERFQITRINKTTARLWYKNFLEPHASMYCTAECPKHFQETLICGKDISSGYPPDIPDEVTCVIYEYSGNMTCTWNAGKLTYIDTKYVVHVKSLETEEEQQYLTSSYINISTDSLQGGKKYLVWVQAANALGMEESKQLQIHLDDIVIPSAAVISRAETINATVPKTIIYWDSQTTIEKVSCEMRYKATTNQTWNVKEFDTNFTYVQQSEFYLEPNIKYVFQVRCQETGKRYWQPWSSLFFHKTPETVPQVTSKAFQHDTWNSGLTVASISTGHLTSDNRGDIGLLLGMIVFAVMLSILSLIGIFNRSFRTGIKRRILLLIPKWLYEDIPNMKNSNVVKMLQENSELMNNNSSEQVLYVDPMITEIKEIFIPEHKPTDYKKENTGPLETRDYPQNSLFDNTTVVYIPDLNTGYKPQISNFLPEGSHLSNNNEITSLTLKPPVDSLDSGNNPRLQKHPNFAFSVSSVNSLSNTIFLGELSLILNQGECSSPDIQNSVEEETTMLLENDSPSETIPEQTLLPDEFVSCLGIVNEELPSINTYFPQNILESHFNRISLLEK
Put plainly: Binding assay: displacement of fluorophore (TAMRA)-labelled reference compound from human IL-23R (BRET, Nluc-IL23R fusion protein membranes). Conditions: for potency of the compound (in words): potency against IL-23R; for Emax: read-out: % displacement (hIL-23R binding).

Test [1] concerns IL-23 mediated IFN-γ secretion (human whole blood). Briefly: Functional inhibition of IL-23 mediated IFN-γ secretion in human whole blood. It is filed as cell-based. Conditions: Table 3-5, hIL-23 EC80 with hIL-2 and hIL-18. The source says:
An in vitro human whole blood assay was used to assess the ability of IL23-R inhibitor compounds to inhibit IL-23-mediated IFN-γ secretion. The assay quantifies the functional antagonism of the IL23R inhibitors may be used to rank inhibitor potencies based on concentration response curves (CRCs) generated in the presence of fixed IL-23, IL-2 and IL-18 concentrations. […] and maximal inhibitory response may be calculated from the curves.
Human blood was obtained from voluntary donors at Blodbanken Hvidovre Hospital, Denmark on the day of the experiment by collection in BD Sodium-Heparin Vacutainer tubes [Cat #367876, Avantor].
The buffer used consisted of RPMI-1640 [Cat #61870-010; Thermo Fisher Scientific] supplemented with 1% V/V Penicillin-Streptomycin (Pen-Strep) Solution [Cat #15140; Thermo Fisher Scientific] and 1 mM Sodium Pyruvate [Cat #11360-039, Thermo Fisher Scientific] and 25 mM HEPES buffer [Cat #15630-056, Thermo Fisher Scientific] and 0.05% V/V Casein [Cat #C4765, Sigma-Aldrich] (hereafter referred to as assay buffer). […] A stimulatory solution of hIL-23 [Cat #11349-IL; R&D systems] corresponding to 4× the EC80 of hIL-23 (1.6 ng/ml) together with 4× hIL-2 [Cat #BT-002; R&D systems] (40 ng/ml) and 4× hIL-18 [Cat #9124-IL; R&D systems] (80 ng/ml) were also prepared in Assay buffer. To initiate the assay, 25 μL of the prepared 4× diluted test compound was added to the wells of a 96 well plate [Cat #167425; Thermo Scientific] followed by addition of 50 μL human whole blood to each well. Following the preincubation of the blood and inhibitor for 15 min in a cell incubator (37° C., 5% CO2), 25 μL of the prepared 4× stimulatory solution was added to each well and incubated for 16-24 hours in a humidity chamber in a cell incubator (37° C., 5% CO2).
To terminate the assay, 100 μL PBS pH 7.4 [Cat #10010-015; Thermo Fisher Scientific] was added to each well and the plate was spun at 350×G for ten minutes to pellet the blood. The supernatant was removed and added to a 96 well V-bottom Polypropylene plate [Corning 3363] using an 8-channel manual pipette.
Samples were diluted an additional 30× in Diluent 57 buffer from the MSD U-PLEX human IFN-γ assay [Cat #K151TTK-2; Mesoscale Discovery].
The IFN-γ level in the supernatant from the individual wells was determined using the MSD U-PLEX human IFN-γ assay kit [Cat #K151TTK-2; Mesoscale Discovery] and read on a Meso QuickPlex SQ 120 plate reader (Mesoscale Discovery).
For data analysis, raw data counts from the Meso QuickPlex SQ 120 plate reader were converted to concentrations of IFN-γ by using the standard curved supplied with the kit. Compound potency (IC50) and maximal inhibition (% inhibition) was estimated by computer-aided curve fitting using a 4-parameter logistic (4PL) non-linear mode. […] Maximal inhibition was expressed as a percentage where 0% is the activity level induced by the reference agonist alone ([…] together with IL-2 and IL-18 as indicated above), and 100% is the baseline activity level of the unstimulated receptor in the absence of the reference agonist.
Typically compounds with a low IC50 are desired. Typically compounds capable of completely inhibiting the IL23-induced response are desired.

SMILES strings stand for the structures. *1 amine or outer side, *2 acyl side, *3 side chain or, on linkers, in order; H or OH if unused. Where a SMILES comes first, the peptide text is derived from it. Bridges are numbered along the chain shown (N, C = ends). [ ]: non-standard residue; d: D form. 2Nal = N[C@@H](Cc1ccc2ccccc2c1)C(=O)O; AEF = NCCOc1ccc(C[C@H](N)C(=O)O)cc1; X1 = O=C(Cc1ccc(CN[*:1])cc1)[*:2]; 3Pal = N[C@@H](Cc1cccnc1)C(=O)O; αMeL = CC(C)C[C@](C)(N)C(=O)O; Dab = NCC[C@H](N)C(=O)O; Sar = CNCC(=O)O

`CNC(=O)[C@H](Cc1cccnc1)NC(=O)[C@H](CCN)NC(=O)[C@@H]1CCC(=O)NCc2ccc(cc2)CC(=O)N[C@@H](CO)C(=O)N[C@H]2CCC(=O)NCC[C@H](NC(=O)[C@H](CCC(N)=O)NC(=O)[C@H](Cc3c[nH]c4ccccc34)NC2=O)C(=O)N[C@@H](Cc2ccc(OCCN)cc2)C(=O)N[C@@H](Cc2ccc3ccccc3c2)C(=O)N[C@@](C)(CC(C)C)C(=O)N1` [Compound 8, [4-Aminomethyl-phenylacetyl](1c)*SE(2c)WQ[Dab](2c)[Y(2-aminoethoxy)][2-Nal][2-Me-Leu]E(1c)[Dab][3-(3-Pyridyl)-Ala]-[NHMe]]: at human IL-23R, the “potency of the compound (in words)” value is given as “particularly potent” and the Emax stood at 103%. Moreover, in test [1], inhibition was half-maximal at 0.33 nM (IC50) and the “maximal inhibition (%)” value is given as 96%.
Turning to `CC(C)C[C@]1(C)NC(=O)[C@H](Cc2ccc3ccccc3c2)NC(=O)[C@H](Cc2ccc(OCCN)cc2)NC(=O)[C@@H]2CCNC(=O)CC[C@H](NC(=O)[C@H](CO)NC(=O)Cc3ccc(cc3)CNC(=O)CC[C@@H](C(=O)N[C@@H](CCN)C(=O)N[C@@H](Cc3cccnc3)C(=O)N(C)CC(N)=O)NC1=O)C(=O)N[C@@H](Cc1c[nH]c3ccccc13)C(=O)N[C@@H](CCC(N)=O)C(=O)N2` [Compound 9, [4-Aminomethyl-phenylacetyl](1c)*SE(2c)WQ[Dab](2c)[Y(2-aminoethoxy)][2-Nal][2-Me-Leu]E(1c)[Dab][3-(3-Pyridyl)-Ala][Sar]-[NH2]] ([X1]SEWQ[Dab][AEF][2Nal][αMeL]E[Dab][3Pal][Sar]-NH2; lactam 3-6, N-10), on human IL-23R, the “potency of the compound (in words)” value is reported as “particularly potent” and the Emax worked out at 100%. Further, in test [1], the 50% inhibitory concentration (IC50) turned out to be 0.21 nM and the “maximal inhibition (%)” value is recorded as 97%.
For `CNC(=O)[C@H](Cc1cccnc1)NC(=O)[C@H](CCN)NC(=O)[C@@H]1CCC(=O)NCc2ccc(cc2)CC(=O)N[C@@H](C)C(=O)N[C@H]2CCC(=O)NCC[C@H](NC(=O)[C@H](CCC(N)=O)NC(=O)[C@H](Cc3c[nH]c4ccccc34)NC2=O)C(=O)N[C@@H](Cc2ccc(OCCN)cc2)C(=O)N[C@@H](Cc2ccc3ccccc3c2)C(=O)N[C@@](C)(CC(C)C)C(=O)N1` [Compound 20, [4-Aminomethyl-phenylacetyl](1c)*AE(2c)WQ[Dab](2c)[Y(2-aminoethoxy)][2-Nal][2-Me-Leu]E(1c)[Dab][3-(3-Pyridyl)-Ala]-[NHMe]], the Emax on human IL-23R was 97%. Also, in test [1], the IC50 came to 0.64 nM and the “maximal inhibition (%)” value is listed as 97%.
For the compound `CNC(=O)CC[C@@H]1NC(=O)[C@H](Cc2c[nH]c3ccccc23)NC(=O)[C@@H]2CCC(=O)NCC[C@H](NC1=O)C(=O)N[C@@H](Cc1ccc(OCCN)cc1)C(=O)N[C@@H](Cc1ccc3ccccc3c1)C(=O)N[C@@](C)(CC(C)C)C(=O)N[C@H](C(=O)N[C@@H](CCN)C(=O)N[C@@H](Cc1cccnc1)C(=O)NC)CCC(=O)NCc1ccc(cc1)CC(=O)N[C@@H](CO)C(=O)N2` [Compound 29, [4-Aminomethyl-phenylacetyl](1c)*SE(2c)W[Q(Me)][Dab](2c)[Y(2-aminoethoxy)][2-Nal][2-Me-Leu]E(1c)[Dab][3-(3-Pyridyl)-Ala]-[NHMe]] ([X1]SEWE(NHMe)[Dab][AEF][2Nal][αMeL]E[Dab][3Pal]-NHMe; lactam 3-6, N-10), at human IL-23R, the IC50 amounted to 0.011 nM and the Emax worked out at 96%. Also, in test [1], half-maximal inhibition (IC50) required 0.54 nM and the “maximal inhibition (%)” value amounted to 96%.
In the case of `CNC(=O)[C@H](Cc1cccnc1)NC(=O)[C@H](CCN)NC(=O)[C@@H]1CCC(=O)NCc2ccc(cc2)CC(=O)N[C@@H](C)C(=O)N[C@H]2CCC(=O)NCC[C@H](NC(=O)[C@H](CCC(N)=O)NC(=O)[C@H](Cc3c[nH]c4ccccc34)NC2=O)C(=O)N[C@@H](Cc2c[nH]c3ncccc23)C(=O)N[C@@H](Cc2ccc3ccccc3c2)C(=O)NC(C)(C)C(=O)N1` [Compound 43, [4-Aminomethyl-phenylacetyl](1c)*AE(2c)WQ[Dab](2c)[7-AzaTrp][2-Nal][Aib]E(1c)[Dab][3-(3-Pyridyl)-Ala]-[NHMe]], on human IL-23R, the Emax came to 101%. In test [1], half-maximal inhibition (IC50) was put at 3.9 nM and the “maximal inhibition (%)” value amounted to 102%.
